Data reported in US9315499B2, “Cytomegalovirus inhibitor compounds” (Boehringer Ingelheim International GmbH, priority 2012, dated 2016).

Molecular target: HCMV polymerase (UL54) (Human cytomegalovirus (strain AD169) (HHV-5) (Human herpesvirus 5), UniProt P08546)
Test: biochemical
Settings: LANCE TR-FRET, purified recombinant GST-UL54; read-out: Example C (IC50 nM)
Protocol: HCMV Polymerase LANCE TR-FRET Assay
This non-radiometric assay determines the enzymatic activity of purified recombinant HCMV polymerase (UL54) using a Digoxigenin-labeled oligonucleotide priming a heteropolymeric template. The enzymatic activity is determined by incorporating Biotin-dUTP in the nascent complementary strand. The signal is generated by Fluorescence Resonance Energy Transfer from the donor (Anti-Digoxigenin-Europium Chelate binding with the primer) to the acceptor Streptavidin-AlloPhycoCyanin (SA-APC) binding to the biotin of the labeled nucleotides incorporated in proximity.
Serial dilutions of the DMSO stock compound solution are performed using DMSO in columns 2-11 and 14-23. DMSO alone is present in columns 1, 12, 13 and 24. Three μL of the DMSO serial dilutions is transferred and diluted using 21 μL of compound dilution buffer (10 mM Hepes pH 7.5, 25 mM KCl, 5 mM MgCl2, 1 mM TCEP) to obtain 12.5% DMSO. 4 μL per well of the 12.5% DMSO serial dilution compound solution is added to the assay plate. The plate is centrifuged at 200×g for 30 sec. […]
To perform the assay, 3 μL of the enzyme solution is added to columns 2-12 and 14-24. […] The signal is read on the Envision plate reader (Perkin-Elmer) or equivalent.

Which IC50 does the source give for `Nc1c(Br)cnc2c1cc(C(=O)NCc1ccc(Cl)cc1)c(=O)n2CC(=O)N1CCC(CO)C1` (centres unmarked) [Compound 6022] here?
Its IC50 is 83 nM.

Which IC50 does the source give for `O=C(NCc1ccc(Cl)cc1)c1cc2cccnc2n(CC(=O)N2CCC(C(=O)O)C2)c1=O` (centres unmarked) [Compound 1029] here?
The IC50 was 6200 nM.
